Laboratory results taken from US9630977B2, “Cephalosporin derivatives and pharmaceutical compositions thereof” (Legochem Biosciences, Inc., priority 2011, dated 2017).
≈ marks a conversion by molar mass, not a printed value. Where two headings read alike, the source gives them in different places.

Experiments:
Assay in all cases: In vitro antibacterial activity test (broth microdilution)
Assay type in all cases: cell-based
[1] = test system: A. baumannii 46
Procedure, shortened: (§1)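 MIC90 (ug/mL) determined by CLSI broth microdilution against clinical isolates, defined as lowest concentration inhibiting visible growth of 90% of organisms after incubation versus untreated control. Compounds tested from 0.0626 to 128 ug/mL final, with 2.5% (V/V) DMSO.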

[2] = test system: A. baumannii 49
Procedure, shortened: as §1

[3] = test system: A. baumannii 52; details: Acinetobacter baumannii
Procedure, shortened: as §1

[4] = test system: A. calcoaceticus ATCC15473; details: Acinetobacter calcoaceticus
Procedure, shortened: as §1

[5] = test system: E. cloacae β19; details: Enterobacter cloacae
Procedure, shortened: as §1

[6] = test system: E. coli AG100; details: Escherichia coli
Procedure, shortened: as §1

[7] = test system: E. coli β4; details: Escherichia coli
Procedure, shortened: as §1

[8] = test system: K. pneumoniae 2011E; details: Klebsiella pneumoniae, 2011E
Procedure, shortened: as §1

[9] = test system: K. pneumoniae β10; details: Klebsiella pneumoniae
Procedure, shortened: as §1

[10] = test system: K. pneumoniae β11; details: Klebsiella pneumoniae
Procedure, shortened: as §1

[11] = test system: K. pneumoniae β13; details: Klebsiella pneumoniae
Procedure, shortened: as §1

[12] = test system: K. pneumoniae β14; details: Klebsiella pneumoniae
Procedure, shortened: as §1

[13] = test system: K. pneumoniae β9; details: Klebsiella pneumoniae
Procedure, shortened: as §1

[14] = test system: M. catarrhalis 2524; details: Moraxella catarrhalis
Procedure, shortened: as §1

[15] = test system: P. aeruginosa 1912E; details: Pseudomonas aeruginosa, 1912E
Procedure, shortened: as §1

[16] = test system: P. aeruginosa 37; details: Pseudomonas aeruginosa, 37, P. aeruginosa 37
Procedure, shortened: as §1

[17] = test system: P. aeruginosa 40
Procedure, shortened: as §1

[18] = test system: P. aeruginosa 43; details: Pseudomonas aeruginosa
Procedure, shortened: as §1

[19] = test system: P. aeruginosa 6065Y; details: Pseudomonas aeruginosa
Procedure, shortened: as §1

[20] = Acinetobacter baumannii, A. baumannii 46, read-out: MIC90
[21] = Acinetobacter baumannii, A. baumannii 49, read-out: MIC90
[22] = A. baumannii 52, read-out: MIC90
[23] = A. calcoaceticus ATCC15473, read-out: MIC90
[24] = AG100, E. coli AG100, read-out: MIC90
[25] = K. pneumoniae 2011E, read-out: MIC90
[26] = K. pneumoniae β10, read-out: MIC90
[27] = K. pneumoniae β11, read-out: MIC90
[28] = K. pneumoniae β13, read-out: MIC90
[29] = K. pneumoniae β9, read-out: MIC90
[30] = M. catarrhalis 2524, read-out: MIC90
[31] = Pseudomonas aeruginosa, 40, P. aeruginosa 40, read-out: MIC90
[32] = P. aeruginosa 43, read-out: MIC90
[33] = Acinetobacter baumannii, 46, A. baumannii 46
[34] = Acinetobacter baumannii, 49, A. baumannii 49
[35] = ATCC15473, A. calcoaceticus ATCC15473

MIC90 [1, 20] [µg/mL] | Structure (SMILES) | MIC90 [1, 33] [µg/mL] | MIC90 [2, 34] [µg/mL] | MIC90 [3]; 52 [µg/mL] | MIC90 [4, 35] [µg/mL] | MIC90 [5] [µg/mL] | MIC90 ([6]; AG100) [µg/mL] | MIC90 [7] [µg/mL] | MIC90 [8] [µg/mL] | MIC90 [9] [µg/mL] | MIC90 [10] [µg/mL] | MIC90 [11] [µg/mL] | MIC90 [12] [µg/mL] | MIC90 [13] [µg/mL] | MIC90 [14]; 2524 [µg/mL] | MIC90 [15] [µg/mL] | MIC90 [16] [µg/mL] | MIC90 ([17]; Pseudomonas aeruginosa, 40) [µg/mL] | MIC90 [18]; 43 [µg/mL] | MIC90 ([19]; 6065Y) [µg/mL] | further results
32 (≈ 41.4 µM) | CC(C)(O/N=C(\C(=O)N[C@@H]1C(=O)N2C(C(=O)[O-])=C(C[n+]3cnc(NCCNC(=O)c4cc(=O)c(O)cn4O)c(N)c3)CSC12)c1csc(N)n1)C(=O)O (stereo partly drawn) [Compound 6] |  |  |  |  |  |  |  |  |  |  |  |  |  |  |  |  |  |  |  | MIC90 [2, 21]: > 128 µg/mL; MIC90 [3, 22]: > 128 µg/mL; MIC90 [4, 23]: 2 µg/mL (≈ 2.58 µM); MIC90 ([5]; read-out: MIC90): 2 µg/mL (≈ 2.58 µM); MIC90 [6, 24]: 0.25 µg/mL (≈ 0.323 µM); MIC90 ([7]; read-out: MIC90): 4 µg/mL (≈ 5.17 µM); MIC90 [8, 25]: 4 µg/mL (≈ 5.17 µM); MIC90 [9, 26]: 0.5 µg/mL (≈ 0.646 µM); MIC90 [10, 27]: 8 µg/mL (≈ 10.3 µM); MIC90 [11, 28]: 0.125 µg/mL (≈ 0.162 µM); MIC90 ([12]; read-out: MIC90): 16 µg/mL (≈ 20.7 µM); MIC90 [13, 29]: 2 µg/mL (≈ 2.58 µM); MIC90 [14, 30]: 2 µg/mL (≈ 2.58 µM); MIC90 ([15]; read-out: MIC90): 0.5 µg/mL (≈ 0.646 µM); MIC90 ([16]; read-out: MIC90): 0.5 µg/mL (≈ 0.646 µM); MIC90 [17, 31]: 0.5 µg/mL (≈ 0.646 µM); MIC90 [18, 32]: 0.5 µg/mL (≈ 0.646 µM); MIC90 ([19]; read-out: MIC90): 2 µg/mL (≈ 2.58 µM)
8 (≈ 9.85 µM) | CC(C)(O/N=C(\C(=O)N[C@@H]1C(=O)N2C(C(=O)[O-])=C(/C=C/C[n+]3cnc(N)c(NC(=O)CCNC(=O)c4cc(=O)c(O)c[nH]4)c3)CSC12)c1csc(N)n1)C(=O)O (stereo partly drawn) [Compound 13] |  |  |  |  |  |  |  |  |  |  |  |  |  |  |  |  |  |  |  | MIC90 [2, 21]: > 128 µg/mL; MIC90 [3, 22]: 128 µg/mL (≈ 158 µM); MIC90 [4, 23]: 2 µg/mL (≈ 2.46 µM); MIC90 ([5]; read-out: MIC90): 8 µg/mL (≈ 9.85 µM); MIC90 [6, 24]: 1 µg/mL (≈ 1.23 µM); MIC90 ([7]; read-out: MIC90): 2 µg/mL (≈ 2.46 µM); MIC90 [8, 25]: 2 µg/mL (≈ 2.46 µM); MIC90 [9, 26]: 1 µg/mL (≈ 1.23 µM); MIC90 [10, 27]: 64 µg/mL (≈ 78.8 µM); MIC90 [11, 28]: 1 µg/mL (≈ 1.23 µM); MIC90 ([12]; read-out: MIC90): 8 µg/mL (≈ 9.85 µM); MIC90 [13, 29]: 1 µg/mL (≈ 1.23 µM); MIC90 [14, 30]: 2 µg/mL (≈ 2.46 µM); MIC90 ([15]; read-out: MIC90): 2 µg/mL (≈ 2.46 µM); MIC90 ([16]; read-out: MIC90): 8 µg/mL (≈ 9.85 µM); MIC90 [17, 31]: 2 µg/mL (≈ 2.46 µM); MIC90 [18, 32]: 4 µg/mL (≈ 4.93 µM); MIC90 ([19]; read-out: MIC90): 8 µg/mL (≈ 9.85 µM)
 | CC(C)(O/N=C(\C(=O)N[C@@H]1C(=O)N2C(C(=O)[O-])=C(/C=C/C[n+]3cnc(N)c(NCCCN)c3)CSC12)c1nsc(N)n1)C(=O)O (stereo partly drawn) [Compound 56] | 4 (≈ 6.04 µM) | 32 (≈ 48.4 µM) | 16 (≈ 24.2 µM) | 1 (≈ 1.51 µM) | 4 (≈ 6.04 µM) | 0.5 (≈ 0.756 µM) | 1 (≈ 1.51 µM) | 2 (≈ 3.02 µM) | 1 (≈ 1.51 µM) | 2 (≈ 3.02 µM) | 1 (≈ 1.51 µM) | 2 (≈ 3.02 µM) | 1 (≈ 1.51 µM) | < 0.0625 | 2 (≈ 3.02 µM) | 8 (≈ 12.1 µM) | 8 (≈ 12.1 µM) | 64 (≈ 96.7 µM) | 16 (≈ 24.2 µM) | 
 | CC(C)(O/N=C(\C(=O)N[C@@H]1C(=O)N2C(C(=O)[O-])=C(/C=C/C[n+]3cnc(N)c(NC(=O)CCCN)c3)CSC12)c1csc(N)n1)C(=O)O (stereo partly drawn) [Compound 63] | 8 (≈ 11.6 µM) | 128 (≈ 186 µM) | 128 (≈ 186 µM) | 1 (≈ 1.45 µM) | 16 (≈ 23.2 µM) | 0.125 (≈ 0.181 µM) | 0.25 (≈ 0.363 µM) | 0.25 (≈ 0.363 µM) | 0.5 (≈ 0.726 µM) | 32 (≈ 46.5 µM) | 1 (≈ 1.45 µM) | 1 (≈ 1.45 µM) | 1 (≈ 1.45 µM) | < 0.0625 | 2 (≈ 2.9 µM) | 32 (≈ 46.5 µM) | 4 (≈ 5.81 µM) | 128 (≈ 186 µM) | 16 (≈ 23.2 µM) | 
 | C[C@H](O/N=C(\C(=O)N[C@@H]1C(=O)N2C(C(=O)[O-])=C(C[n+]3cnc(NCCN)c(NCCNC(=O)c4cc(=O)c(O)cn4O)c3)CSC12)c1nc(N)sc1Cl)C(=O)O (stereo partly drawn) [Compound 21] | 16 (≈ 19.1 µM) | 8 (≈ 9.56 µM) | 2 (≈ 2.39 µM) | 1 (≈ 1.19 µM) | 16 (≈ 19.1 µM) | 0.5 (≈ 0.597 µM) | 4 (≈ 4.78 µM) | 4 (≈ 4.78 µM) | 2 (≈ 2.39 µM) | 8 (≈ 9.56 µM) | 2 (≈ 2.39 µM) | 16 (≈ 19.1 µM) | 2 (≈ 2.39 µM) | 0.125 (≈ 0.149 µM) | 4 (≈ 4.78 µM) | 32 (≈ 38.2 µM) | 8 (≈ 9.56 µM) | 2 (≈ 2.39 µM) | 4 (≈ 4.78 µM) | 
 | CC(C)(O/N=C(\C(=O)N[C@@H]1C(=O)N2C(C(=O)[O-])=C(C[n+]3cnc(NCCCCN)c(NCCCCN)c3)CSC12)c1csc(N)n1)C(=O)O (stereo partly drawn) [Compound 41] | 32 (≈ 44.5 µM) | 32 (≈ 44.5 µM) | 32 (≈ 44.5 µM) | 1 (≈ 1.39 µM) | 4 (≈ 5.56 µM) | 1 (≈ 1.39 µM) | 1 (≈ 1.39 µM) | 4 (≈ 5.56 µM) | 2 (≈ 2.78 µM) | 8 (≈ 11.1 µM) | 2 (≈ 2.78 µM) | 2 (≈ 2.78 µM) | 2 (≈ 2.78 µM) | 0.125 (≈ 0.174 µM) | 4 (≈ 5.56 µM) | 8 (≈ 11.1 µM) | 4 (≈ 5.56 µM) | 128 (≈ 178 µM) | 16 (≈ 22.2 µM) | 
